The source of these data is patent US20150087627A1, “COMBINATION OF KINASE INHIBITORS AND USES THEREOF” (Intellikine LLC, priority 2011, published 2015).

In general, IC50 refers to the point on the concentration scale where inhibition reaches its midpoint.

For one data set, the target named is T1, PI3K γ (p110γ) (Homo sapiens, UniProt P48736).
T1 construct: purchased Upstate / Millipore Corporation
Briefly: PI 3-Kinase (human) HTRF assay, PI3K γ. The format is biochemical. The following applies: read-out: PI3K γ IC50. (In general: In TR-FRET formats the signal depends on donor and acceptor labels being close together.)

A further data set deals with T2, PI3K β (p110β/p85α) (Homo sapiens, UniProt P42338).
T2 construct: purchased Upstate / Millipore Corporation
Briefly: PI 3-Kinase (human) HTRF assay, PI3K β. Type of data set: biochemical. The following applies: read-out: PI3K β IC50.

A further data set concerns the target T3, PI3K α (p110α/p85α) (Homo sapiens, UniProt P42336).
T3 construct: purchased Upstate / Millipore Corporation
Briefly: PI 3-Kinase (human) HTRF assay, PI3K α. The format is biochemical. The settings on record: read-out: PI3K α IC50.

The next data set relates to T47D. In words: T47D proliferation. The following applies: Homo sapiens; T47D cell line. Type of data set: cell-based.
The target of the next data set is T4, PI3K δ (Homo sapiens, UniProt O00329).
T4 construct: purchased Upstate / Millipore Corporation
Briefly: PI 3-Kinase (human) HTRF assay, PI3K δ. The format is biochemical. The following applies: read-out: PI3K δ IC50.

The next data set concerns MZB cells. Briefly: MZB cells in mouse spleen (FIG. 9, right panel). Type of data set: in vivo. The settings on record: 70 mg/kg Pan-PI3K inhibitor compared to 60 mg/kg Compound A.
For data set [1], the system named is anti-TNP antibody production. Briefly: TNP-Ficoll T-cell independent B-cell activation assay. The format is in vivo, mice. The settings on record: 70 mg/kg GDC0941 for 7 days, FIG. 8. As for the experimental part:
To test the effects of the compounds of the present invention in suppressing T cell independent antibody production, the TNP-Ficoll B-cell activation assay is used as described herein. Compounds of the present invention are dissolved in an appropriate vehicle (e.g. 5% 1-methyl-2-pyrrolidinone, 85% polyethylene glycol 400, 10% Solutor). Compounds are administered orally approximately 1 hr before TNP-Ficoll treatment to 4-10 week old mice. To study the effects of the compounds on B-cell activation, one set of mice are grouped according to the following table:
Four animals in group 1, and eight animals in groups 2 to 7 are euthanized in CO2 2 hours after the last compound administration on day 7. […]
Serum samples are analyzed for anti-TNP antibody titers by ELISA as described herein. […] HRP substrate (200 μl ABTS solution+30% H2O2+10 ml citrate buffer) is added to each well at 100 μl/well, incubated 2-20 minutes in the dark and the amount of anti-TNP IgG3 is determined spectrophotometrically at 405 nm. Similarly, anti-TNP IgM and total anti-TNP Ab are determined using anti-mouse IgM-HRP and anti-mouse Ig-HRP respectively.
Antibody production was measured using ELISA and plotted as a percentage of control group that were treated with vehicle.

The next data set has as its system marginal zone B cells. In words: Marginal zone B cells in mouse spleen (FACS). The format is in vivo. The following applies: 70 mg/kg, spleens harvested 2 hrs after the last dose, FIG. 9.
Data set [2] has as its system preclinical breast cancer model. In words: Preclinical breast cancer model, tumor weight / volume. Type of data set: in vivo. The following applies: 70 mg/kg Pan-PI3K inhibitor; 60 mg/kg compound A; FIG. 9 left panel.
For a further data set, the system named is B cell function. Briefly: TNP-Ficoll immunization, antibody production (FIG. 8). The format is in vivo. The following applies: mice immunized with TNP-Ficoll, 7 days, 70 mg/kg GDC0941, 30, 60 or 120 mg/kg Compound A. How it is done:
Mice were immunized with TNP-Ficoll and treated with 1) vehicle; 2) 70 mg/kg GDC0941; 3) 30 mg/kg Compound A; 4) 60 mg/kg Compound A; or 5) 120 mg/kg Compound A for 7 days. Antibody production was measured as a percentage of control group that were treated with vehicle.

Data set [3] deals with MDA-MB-361 (PI3Kα/HER2 carcinoma) tumors. Briefly: In vivo efficacy in xenogenic mouse model of breast cancer. Further details: species or system Nude mice. The settings on record: 70 mg/kg, FIG. 9 left panel. As for the experimental part: Blood glucose was monitored periodically following administration of treatment.
Treatment of tumors (MDA-MB-361) with compounds was discontinued on Day 30. Tumors were measured every 2-5 days.

T1 sequence (P48736 whole entry): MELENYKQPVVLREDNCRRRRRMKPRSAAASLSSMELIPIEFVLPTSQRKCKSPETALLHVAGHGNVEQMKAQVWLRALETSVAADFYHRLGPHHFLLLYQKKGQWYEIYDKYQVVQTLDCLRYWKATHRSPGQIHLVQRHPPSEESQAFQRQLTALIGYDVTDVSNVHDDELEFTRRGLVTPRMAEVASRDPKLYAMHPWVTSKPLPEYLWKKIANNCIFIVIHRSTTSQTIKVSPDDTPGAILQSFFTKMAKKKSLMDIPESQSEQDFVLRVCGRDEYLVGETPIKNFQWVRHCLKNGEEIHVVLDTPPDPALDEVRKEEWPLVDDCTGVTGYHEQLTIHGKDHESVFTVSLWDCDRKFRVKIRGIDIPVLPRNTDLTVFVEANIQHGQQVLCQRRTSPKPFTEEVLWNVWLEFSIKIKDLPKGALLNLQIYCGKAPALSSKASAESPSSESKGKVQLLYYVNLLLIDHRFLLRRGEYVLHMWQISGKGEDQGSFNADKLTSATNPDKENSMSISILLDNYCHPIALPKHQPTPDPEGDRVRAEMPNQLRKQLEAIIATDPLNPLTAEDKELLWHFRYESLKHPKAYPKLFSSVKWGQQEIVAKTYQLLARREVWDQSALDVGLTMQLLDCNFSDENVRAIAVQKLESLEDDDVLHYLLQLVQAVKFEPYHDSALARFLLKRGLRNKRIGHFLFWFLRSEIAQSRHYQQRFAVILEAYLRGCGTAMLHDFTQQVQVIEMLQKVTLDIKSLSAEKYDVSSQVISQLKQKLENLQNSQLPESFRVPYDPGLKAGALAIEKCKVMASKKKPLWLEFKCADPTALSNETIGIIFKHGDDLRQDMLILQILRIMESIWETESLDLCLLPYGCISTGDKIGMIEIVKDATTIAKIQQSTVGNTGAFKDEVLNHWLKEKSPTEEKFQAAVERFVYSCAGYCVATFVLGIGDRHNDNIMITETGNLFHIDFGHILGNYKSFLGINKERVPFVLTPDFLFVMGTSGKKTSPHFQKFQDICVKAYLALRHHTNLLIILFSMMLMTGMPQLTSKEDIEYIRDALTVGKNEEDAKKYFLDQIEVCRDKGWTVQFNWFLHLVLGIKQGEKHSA
T2 sequence (P42338 whole entry): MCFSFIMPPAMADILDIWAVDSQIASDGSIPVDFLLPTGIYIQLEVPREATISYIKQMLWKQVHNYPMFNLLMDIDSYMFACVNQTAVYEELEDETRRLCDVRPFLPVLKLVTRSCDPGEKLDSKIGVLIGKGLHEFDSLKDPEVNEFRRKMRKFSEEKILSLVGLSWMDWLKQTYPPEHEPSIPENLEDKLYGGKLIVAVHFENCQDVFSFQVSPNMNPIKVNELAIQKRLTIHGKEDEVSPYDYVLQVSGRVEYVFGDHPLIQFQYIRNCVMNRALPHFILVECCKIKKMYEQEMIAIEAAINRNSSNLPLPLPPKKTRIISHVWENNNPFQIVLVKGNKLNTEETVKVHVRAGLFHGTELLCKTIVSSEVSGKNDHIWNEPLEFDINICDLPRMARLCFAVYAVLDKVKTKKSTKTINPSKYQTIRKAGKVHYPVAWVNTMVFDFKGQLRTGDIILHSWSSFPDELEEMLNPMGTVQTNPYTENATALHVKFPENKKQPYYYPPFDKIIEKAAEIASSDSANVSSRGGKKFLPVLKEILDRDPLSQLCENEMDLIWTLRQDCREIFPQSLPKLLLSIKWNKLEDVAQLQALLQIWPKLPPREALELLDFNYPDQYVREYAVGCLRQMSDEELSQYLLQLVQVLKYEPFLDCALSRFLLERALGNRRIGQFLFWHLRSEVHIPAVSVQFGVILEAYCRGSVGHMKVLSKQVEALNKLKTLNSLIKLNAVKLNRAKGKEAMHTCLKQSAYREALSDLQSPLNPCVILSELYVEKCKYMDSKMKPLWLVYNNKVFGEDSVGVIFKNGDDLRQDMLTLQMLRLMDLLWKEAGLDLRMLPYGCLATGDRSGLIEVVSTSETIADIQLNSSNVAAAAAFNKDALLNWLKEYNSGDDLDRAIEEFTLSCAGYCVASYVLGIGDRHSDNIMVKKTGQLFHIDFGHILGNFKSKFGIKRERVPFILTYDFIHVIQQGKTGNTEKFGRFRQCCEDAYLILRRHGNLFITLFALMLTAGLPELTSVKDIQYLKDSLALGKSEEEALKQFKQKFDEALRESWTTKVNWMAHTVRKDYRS
T2 sequence (P27986 whole entry partner): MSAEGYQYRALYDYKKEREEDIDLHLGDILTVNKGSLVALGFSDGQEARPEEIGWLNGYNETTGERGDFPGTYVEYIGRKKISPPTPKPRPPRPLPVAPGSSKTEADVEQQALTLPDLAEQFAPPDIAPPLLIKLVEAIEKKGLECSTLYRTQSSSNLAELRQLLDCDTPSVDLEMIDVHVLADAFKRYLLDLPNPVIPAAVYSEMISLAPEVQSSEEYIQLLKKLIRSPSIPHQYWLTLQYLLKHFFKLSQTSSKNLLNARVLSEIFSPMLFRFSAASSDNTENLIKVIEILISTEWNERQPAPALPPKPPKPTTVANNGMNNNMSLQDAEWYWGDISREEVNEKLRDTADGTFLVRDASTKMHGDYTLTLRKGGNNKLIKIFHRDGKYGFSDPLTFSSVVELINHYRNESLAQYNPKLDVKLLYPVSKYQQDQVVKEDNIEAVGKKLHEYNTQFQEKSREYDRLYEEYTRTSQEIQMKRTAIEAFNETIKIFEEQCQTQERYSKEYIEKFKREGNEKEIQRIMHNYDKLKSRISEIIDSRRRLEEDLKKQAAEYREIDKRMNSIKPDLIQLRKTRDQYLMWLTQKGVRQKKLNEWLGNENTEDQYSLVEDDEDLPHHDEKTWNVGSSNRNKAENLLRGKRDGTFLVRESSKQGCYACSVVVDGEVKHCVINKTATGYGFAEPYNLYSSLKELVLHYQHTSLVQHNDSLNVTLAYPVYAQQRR
T4 sequence (O00329 whole entry): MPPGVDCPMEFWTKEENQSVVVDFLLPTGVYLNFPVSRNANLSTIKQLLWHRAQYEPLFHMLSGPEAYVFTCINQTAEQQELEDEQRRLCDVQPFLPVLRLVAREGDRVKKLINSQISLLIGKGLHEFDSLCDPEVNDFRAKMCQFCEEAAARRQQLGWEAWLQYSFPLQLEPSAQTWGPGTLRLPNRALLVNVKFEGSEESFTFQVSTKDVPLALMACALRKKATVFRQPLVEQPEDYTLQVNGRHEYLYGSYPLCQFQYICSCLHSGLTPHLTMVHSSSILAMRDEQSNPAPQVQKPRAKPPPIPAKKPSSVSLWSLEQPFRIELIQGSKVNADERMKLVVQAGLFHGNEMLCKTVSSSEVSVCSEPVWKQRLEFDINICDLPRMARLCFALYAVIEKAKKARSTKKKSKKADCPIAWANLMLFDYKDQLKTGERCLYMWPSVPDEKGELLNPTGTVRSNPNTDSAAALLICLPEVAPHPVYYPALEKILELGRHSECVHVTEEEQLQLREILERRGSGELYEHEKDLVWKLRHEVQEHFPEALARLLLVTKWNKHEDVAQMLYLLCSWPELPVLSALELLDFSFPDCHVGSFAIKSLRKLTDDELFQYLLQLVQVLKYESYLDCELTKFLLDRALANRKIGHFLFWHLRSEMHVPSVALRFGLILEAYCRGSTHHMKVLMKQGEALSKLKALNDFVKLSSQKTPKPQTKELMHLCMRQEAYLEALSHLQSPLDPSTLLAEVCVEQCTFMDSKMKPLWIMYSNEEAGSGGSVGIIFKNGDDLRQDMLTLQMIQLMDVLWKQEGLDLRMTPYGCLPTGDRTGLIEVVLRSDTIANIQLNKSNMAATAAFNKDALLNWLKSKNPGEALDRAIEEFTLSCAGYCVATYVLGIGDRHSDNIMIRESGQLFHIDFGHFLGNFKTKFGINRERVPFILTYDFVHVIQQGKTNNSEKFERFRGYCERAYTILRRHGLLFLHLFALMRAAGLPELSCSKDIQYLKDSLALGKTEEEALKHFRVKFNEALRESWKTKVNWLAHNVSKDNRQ
T4 sequence (P27986 whole entry partner): as the sequence (P27986 whole entry partner) above
T3 sequence (P42336 whole entry): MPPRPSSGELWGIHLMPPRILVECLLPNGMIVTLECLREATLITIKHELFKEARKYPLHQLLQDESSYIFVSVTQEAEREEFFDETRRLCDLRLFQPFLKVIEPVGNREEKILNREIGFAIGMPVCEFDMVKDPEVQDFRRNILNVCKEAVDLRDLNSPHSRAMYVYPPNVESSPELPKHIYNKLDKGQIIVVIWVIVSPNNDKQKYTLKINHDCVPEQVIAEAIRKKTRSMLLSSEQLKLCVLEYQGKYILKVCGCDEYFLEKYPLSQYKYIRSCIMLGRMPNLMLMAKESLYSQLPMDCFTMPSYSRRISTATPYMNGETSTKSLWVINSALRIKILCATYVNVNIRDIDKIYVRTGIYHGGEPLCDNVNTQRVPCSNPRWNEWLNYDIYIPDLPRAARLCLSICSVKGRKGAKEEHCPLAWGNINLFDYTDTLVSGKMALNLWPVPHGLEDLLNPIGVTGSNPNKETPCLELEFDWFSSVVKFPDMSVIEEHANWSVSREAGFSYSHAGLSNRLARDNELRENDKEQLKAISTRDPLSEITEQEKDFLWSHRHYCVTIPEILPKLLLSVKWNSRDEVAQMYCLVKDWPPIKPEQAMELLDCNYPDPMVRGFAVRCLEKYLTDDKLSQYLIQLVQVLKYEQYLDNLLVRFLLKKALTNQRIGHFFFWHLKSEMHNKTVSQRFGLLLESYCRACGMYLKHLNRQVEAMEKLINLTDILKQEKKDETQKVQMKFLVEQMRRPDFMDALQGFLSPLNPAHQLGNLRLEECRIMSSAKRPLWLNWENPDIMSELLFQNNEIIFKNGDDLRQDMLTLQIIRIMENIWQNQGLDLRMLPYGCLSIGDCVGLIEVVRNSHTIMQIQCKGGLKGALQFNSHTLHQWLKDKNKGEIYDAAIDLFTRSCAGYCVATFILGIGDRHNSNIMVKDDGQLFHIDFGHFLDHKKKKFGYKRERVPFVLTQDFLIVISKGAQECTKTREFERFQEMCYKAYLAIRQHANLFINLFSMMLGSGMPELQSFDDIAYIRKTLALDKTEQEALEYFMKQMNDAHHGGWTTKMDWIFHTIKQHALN
T3 sequence (P27986 whole entry partner): as the sequence (P27986 whole entry partner) above
Experimental for marginal zone B cells: The effect of the compounds on the localization/viability of marginal zone B cells in the spleen is also evaluated at the conclusion of treatment.
Spleens were harvested 2 hrs after the last dose, processed and stained with appropriate antibodies (marginal zone B cell: B220+;CD23−;CD21hi) and analyzed for staining on GUAVA EasyCyte FACS machine using Guava Cytosoft 5.2 software.

For the compound `Nc1nc2cc(-c3ccc4nnc(C(=O)N5CCOCC5)n4c3)ccc2o1` [Compound 282], the IC50 on PI3K γ (p110γ), at PI3K β (p110β/p85α), on PI3K α (p110α/p85α), in the data set on T47D and at PI3K δ was > 10 µM throughout.

In the case of `CS(=O)(=O)N1CCN(Cc2cc3nc(-c4cccc5[nH]ncc45)nc(N4CCOCC4)c3s2)CC1` [Pan-PI3K inhibitor, reference compound], the “presence of MZB cells in mouse spleen” value in the data set on MZB cells and in the data set with marginal zone B cells was “reduced presence of MZB cells” in each case. Further, the “B cell function in vivo (antibody production, ELISA)” value in data set [1] is given as “blocks B cell function in vivo”. The “tumor weight of a breast cancer model” value in data set [2] was “reduction in tumor weight”. For the same compound, the “B cell function in vivo (antibody production as percentage of vehicle control)” value in the data set with B cell function is given as “blocks B cell function in vivo”. In addition, the tumor weight result in data set [3] is given as “reduction in tumor weight”.
